Assay results published in patent US20200048208A1, “TREATMENT OF DISEASES OR DISORDERS CAUSED BY INDUCED NFkB TRANSCRIPTIONAL ACTIVITY” (Senex Biotechnology, Inc., priority 2011, published 2020).
Entries after “also recorded” stand apart in the source; their conditions may differ. Non-standard residues stand in square brackets, D forms with d. Residues, ends and D or L forms follow the SMILES beside them. *: point of attachment. Nva = CCC[C@H](N)C(=O)O; Cbz = O=C(OCc1ccccc1)*

Experiments:
[1] = clinical experience (Cavaletti and Jakubowiak, 2010); cited from earlier work
[2] = bone loss therapy (Hiligsmann and Reginster, 2010); cited from earlier work
[3] = test system: TNFα-induced NFκB-dependent transcription; test: NFkB-GFP reporter flow cytometry after inhibitor and TNFα (GFP fluorescence); format: cell-based, human; conditions: HT1080-derived reporter, inhibitor 3 hours then 18 hours TNFα (10 ng/ml)
Procedure: (§1) We have compared Senexin A to two known proteasome-targeting NFκB inhibitors, N-tosyl-L-phenylalanine chloromethyl ketone (TPCK) (Ha et al., 2009) and MG115 in regard to their cytotoxicity and their effect on the nuclear translocation of active NFκB. In the experiment shown in FIG. 7, the HT1080-derived NFkB-GFP reporter cell line was seeded in 60 mm plates at 1.5×10^5 cells per plate and cultured overnight before being treated with different NFκB inhibitors at the concentrations indicated in FIG. 7 for 3 hours, followed by 18 hours TNFα (10 ng/ml) stimulation. The treated cells were trypsinized, resuspended in PBS, mixed with 5 μg/ml propidium iodide (PI), and analyzed using LSRII flow cytometer (BD Biosciences) for GFP fluorescence (left panel) and the percentage of dead (PI-positive) cells (right panel).

[4] = test system: HT1080-derived NFkB-GFP reporter cell line; test: Propidium iodide flow cytometry for dead cells; format: cell-based, human; conditions: inhibitor 3 hours then 18 hours TNFα (10 ng/ml)
Procedure: as §1

p65 = test: TransAM NFκB DNA-binding ELISA of nuclear extracts, p65; format: cell-based, human; conditions: HT1080 and HEK293 cells, untreated and TNFα-treated; 5 μM Senexin A, 60 μM TPCK, 10 μM MG115 for 3 hours
Description: (§2) Given the role of NFxB in the induction of transcription by p21 (Poole et al., 2004), we have tested SNX2 for the ability to decrease the amount of active NFκB in the nucleus, a general assay for different known classes of NFκB inhibitors. As shown in FIG. 8 of US patent publication 20080033000, we have found, using ACTIVE MOTIF TransAM™ NFκB p65 Chemi and NFκB p50 Chemi Transcription Factor Assay Kits, that SNX2 had no effect on the amount of p50 or p65 NFκB subunits binding to NFκB consensus sequence in nuclear extracts from HT 1080 cells, untreated or treated with NFκB inducer TNFα.
(§3) The DNA-binding activities of nuclear NFκB proteins were measured by the ELISA-based TransAM NFκB Family Transcriptional Factor Assay Kit (Active Motif) following manufacturer's protocol. HT1080 and HEK293 cells were pretreated with inhibitors (5 μM Senexin A, 60 μM TPCK, 10 μM MG115) for 3 hours and then treated with 10 ng/ml TNF for 30 minutes before nuclear extract preparation with Nuclear Extraction Kit (Active Motif). Nuclear extracts were assayed at 5 μg/well for p65 and 2.5 μg/well for p50 DNA binding.

p50 = test: TransAM NFκB DNA-binding ELISA of nuclear extracts, p50; format: cell-based, human; conditions: HT1080 and HEK293 cells, untreated and TNFα-treated; 5 μM Senexin A, 60 μM TPCK, 10 μM MG115 for 3 hours
Description: as §2, §3

NFκB-dependent promoter [5] = test: NFκB-GFP reporter assay, induction by IPTG-inducible p21 (flow cytometric); format: cell-based, human; conditions: HT1080 p21-9 derived NFκB-GFP reporter cells, 50 mM IPTG for 72 hrs, different concentrations
Procedure: (§4) We have tested the effects of SNX2-class compounds on NFκB transcriptional activity. These assays were conducted with a reporter cell line that we derived from HT1080 p21-9 cells carrying IPTG-inducible p21 (Chang et al., 1999) after transduction with Cignal Lenti NFκB Reporter lentivirus (SA Biosciences), which expresses GFP from a NFκB-dependent minimal promoter. The reporter cell line was then selected for a high basal level of NFκB-dependent GFP expression, which was further increased by TNFα or upon p21 induction by IPTG.

NFκB-dependent promoter [6] = test: NFκB-GFP reporter assay, TNFα induction (96-well fluorometric); format: cell-based, human; conditions: HT1080-based NFκB-GFP reporter cells
Procedure: as §4
The ability of SNX2-class compounds to prevent the induction of the NFκB-dependent promoter by p21 was not surprising, since these compounds were identified by their ability to prevent p21-mediated induction of another promoter (CMV) (Chang et al., 2008), and NFκB stimulation by p21 was already known.

NFκB-inducible genes [7] = test: QPCR of NFκB-inducible genes in TNFα-treated HEK293 cells; format: cell-based, human; conditions: HEK293, 5 μM pretreatment 1 hour, 10 ng/ml TNFα 30 minutes
Procedure: The cells were seeded in 6-well plates at 6×10^5 cells/well in media containing 3% serum and cultured overnight. The next day, cells were pretreated with 5 μM Senexin A or with DMSO vehicle control for 1 hour and treated with or without 10 ng/ml TNFα for 30 minutes. Cells were then lysed for total RNA purification with the RNeasy Kit (Qiagen). For QPCR analysis of NFκB-inducible genes, cDNA was prepared using Maxima First Strand cDNA Synthesis Kit (Thermo Scientific/Fermentas, K1641) and gene expression was measured by QPCR with gene-specific primers, with RPL13A as a normalization standard, using Maxima SYBR Green/ROX qPCR Master Mix (Thermo Scientific/Fermentas, K0223) and ABI Prism 7900HT Detection system (Life technologies).

NFκB-inducible genes [8] = test: QPCR of NFκB-inducible genes in TNFα-treated wild-type HCT116 cells; format: cell-based, human; conditions: wild-type HCT116, 5 μM pretreatment 1 hour, 10 ng/ml TNFα 30 minutes
Procedure: (§5) We have verified the effect of CDK8/19 inhibition on NFκB-mediated induction of transcription in human HCT116 colon carcinoma cells, where we also used the availability of a p21−/− derivative of this cell line (Waldman et al., 1996) to determine if this effect depends on p21. The wild-type and p21−/− HCT116 cells were seeded in 6-well plates at 6×10^5 cells/well in media with 10% serum and cultured overnight. The next day, cells were pretreated with 5 μM Senexin A or with DMSO vehicle control for 1 hour and treated with or without 10 ng/ml TNFα for 30 minutes. Cells were then lysed for RNA purification and QPCR analysis of NFκB-inducible genes.

NFκB-inducible genes [9] = test: QPCR of NFκB-inducible genes in TNFα-treated p21−/− HCT116 cells; format: cell-based, human; conditions: p21−/− HCT116, 5 μM pretreatment 1 hour, 10 ng/ml TNFα 30 minutes
Procedure: as §5

[10] = test system: induction of transcription by p21; conditions: at concentrations that inhibit NFκB (Poole et al., 2004); cited from earlier work

## CC(C)C[C@H](NC(=O)[C@H](Cc1ccccc1)NC(=O)c1cnccn1)B(O)O [Bortezomib]
[1]
  Bortezomib-induced peripheral neuropathy: 37-44 % of patients

## denosumab
[2]
  safety profile: good safety profile

## N-tosyl-L-phenylalanine chloromethyl ketone [TPCK, reference compound]
[3]
  TNFα-induced NFκB-dependent transcription (GFP fluorescence): inhibited TNFα-induced NFκB-dependent transcription
[4]
  fraction of dead (PI-positive) cells: strongly increased the fraction of dead cells
p65
  amount of active p65 (DNA binding) in nuclear extracts: strongly decreased
p50
  amount of active p50 (DNA binding) in nuclear extracts: strongly decreased

## CCC[C@@H](C=O)NC(=O)[C@H](CC(C)C)NC(=O)[C@H](CC(C)C)NC(=O)OCc1ccccc1 [MG115, reference compound] (Cbz-Leu-Leu-[Nva]-aldehyde)
[3]
  TNFα-induced NFκB-dependent transcription (GFP fluorescence): inhibited TNFα-induced NFκB-dependent transcription
[4]
  fraction of dead (PI-positive) cells: strongly increased the fraction of dead cells
p65
  amount of active p65 (DNA binding) in nuclear extracts: strongly decreased
p50
  amount of active p50 (DNA binding) in nuclear extracts: strongly decreased

## N#Cc1ccc2ncnc(NCCc3ccccc3)c2c1 [SNX2-1-53]
NFκB-dependent promoter [5]
  induction of the NFκB-dependent promoter by p21 (GFP expression): strongly inhibited
NFκB-dependent promoter [5]; listed as Senexin A
  induction of the NFκB-dependent promoter by p21 (GFP expression): dose dependent inhibition
NFκB-dependent promoter [6]; 10 ng/ml TNFα for 18 hrs
  TNFα-induced NFκB activity (GFP expression normalized by Hoechst 33342): inhibited TNFα-induced NFκB activity
NFκB-dependent promoter [6]; untreated (no TNFα)
  basal NFκB activity (normalized GFP expression): did not significantly inhibit
NFκB-inducible genes [7]
  induction of NFκB-regulated genes by TNFα: drastically inhibited
NFκB-inducible genes [8]
  TNFα-induced gene expression: inhibited TNFα-induced gene expression to the same degree
NFκB-inducible genes [9]
  TNFα-induced gene expression: inhibited TNFα-induced gene expression to the same degree
[3]; listed as Senexin A
  TNFα-induced NFκB-dependent transcription (GFP fluorescence): inhibits NFκB activation; also recorded: inhibited TNFα-induced NFκB-dependent transcription
[4]; listed as Senexin A
  fraction of dead (PI-positive) cells: minimal effects on cell viability; also recorded: did not
p65
  amount of active p65 (DNA binding) in nuclear extracts: does not block; also recorded: indistinguishable from the control
p50
  amount of active p50 (DNA binding) in nuclear extracts: does not block; also recorded: indistinguishable from the control

## CC1=C(CC(=O)O)c2cc(F)ccc2/C1=C\c1ccc([S+](C)[O-])cc1 (stereo not shown) [Sulindac]
[10]
  induction of transcription by p21: inhibited
